Measurements reported in patent publication US20240016881A1, “Coronavirus Therapy” (priority 2020, published 2024).
“And” between values parts separate entries of the source, which are not always exact repeats. Equal entries are not always repeated. Where no end group is shown, it is not given here.

Tests used:
[1] = Fasting plasma glucagon in subjects with Type 2 diabetes treated with NDX-90 peptide; format: in vivo, human
Text: The inventor then measured the effect of NDX-90 peptide treatment over several months on fasting plasma glucagon levels in subjects with Type 2 diabetes.

soluble ACE2 = experiment: Soluble ACE2 ELISA in cultures of human islet cells from Type 2 diabetes tissue donors; format: cell-based; settings: for % reduction soluble ACE2 100-(T/Cx100): vs control cultures
Procedure: The inventor next measured the effect of NDX-90 peptide on soluble ACE2 levels in cultures of human islet cells from Type 2 diabetes tissue donors. Human pancreatic islet cells were cultured in 24-well tissue culture plates. Two series of cultures were set up. NDX-90 peptide solution was added to one series and an equivalent amount of culture medium was added to the second series. Supernatant samples were removed from the test and control cultures at 4, 24 and 48 hours after addition of the treatment. Supernatant samples were removed only once from each test and control well for each time point. The samples were tested for soluble ACE2 by the use of a commercial ELISA kit according to the manufacturer's instructions.

[2] = ELISA binding of NDX-90 peptide to cardiolipin-coated microtitre plate
Text: Each mean and standard deviation is for three observations.

[3] = test system: isolated rat islet cultures; experiment: Glucagon levels secreted from isolated rat islet cultures, medium plus NDX-90 vs medium alone; format: cell-based; settings: for Glucagon level (pg/ml) Medium plus NDX-90: NDX-90 1 μg/ml, 11 mmol/L glucose; for Percentage reduction of glucagon secretion: vs medium alone
Procedure: Isolated islets were suspended in RPMI 1640 containing 11 mmol/L (200 mg/dL) glucose and 10% FCS. The glucose concentration simulates a diabetic environment. NDX-90 was dissolved in the culture medium and added to the appropriate wells at a final concentration of 1 μg/ml. After the specified incubation times, samples were removed for glucagon measurements using Quantikine ELISA Immunoassay (R&D Systems).
The inventor measured glucagon levels secreted from isolated rat islet cultures, to determine whether NDX-90 was capable of reducing glucagon levels.

[4] = test system: buccal tissue culture inserts; experiment: Buccal tissue permeability (cell permeation, HPLC peak area of supernatant); format: in vitro ADME
Procedure: Buccal tissue culture inserts were transferred from the original tissue culture 24-well plates (maintained at 4° C. in sealed bags containing 5% CO2) under sterile conditions into wells of a fresh 24-well plate containing 1.0 ml serum free medium pre-warmed to 37° C. The plate was incubated in a humidified incubator at 37° C. in a 5% CO2 atmosphere for one hour as a pre-equilibration procedure prior to dosing. After removal from the incubator, any culture medium over the surface of the tissue was carefully removed and replaced with 40 μL of appropriately diluted peptide solution in serum free culture medium. The plate was incubated for further 30 minutes at 37° C. in a 5% CO2 atmosphere. The plate was removed from the incubator and supernatant samples were taken and analysed by HPLC. The main peak areas of the supernatants were compared to those of the pre-incubation stock samples.
The inventor next measured buccal tissue permeability of NDX-90 peptide, to determine its uptake.

QQYNSYPLT (also: dimer) [NDX-90, b142 says NDX-90 is a dimer]
Improvement in fasting glucagon towards normality ([1]; 9.61 pg/ml relative to literature excess of 12.2 pg/ml in Type 2 diabetes vs nondiabetic controls): 78.8% | Difference baseline vs treated fasting plasma glucagon ([1]; day 1 vs mean of days 43, 99 and 113, P = 0.009, listed as NDX-90 peptide): 9.61 pg/mL | Baseline ± sd fasting plasma glucagon ([1]; mean baseline on day 1, n = 23, Type 2 diabetes): 103 ± 38.3 pg/mL | Treated ± sd fasting plasma glucagon ([1]; mean of measurements on days 43, 99 and 113, n = 23, Type 2 diabetes): 93.47 ± 32.3 pg/mL | % reduction soluble ACE2 100-(T/Cx100) (soluble ACE2; 4 hours): 5.3% | % reduction soluble ACE2 100-(T/Cx100) (soluble ACE2; 4 hours, listed as NDX-90 Peptide): 5.3% | % reduction soluble ACE2 100-(T/Cx100) (soluble ACE2; 24 hours): 6.25% | % reduction soluble ACE2 100-(T/Cx100) (soluble ACE2; 24 hours, listed as NDX-90 Peptide): 6.25% | Reduction of soluble ACE2 (soluble ACE2; 48 hours): No further reduction | Binding to cardiolipin [2]: has the capacity to bind to cardiolipin | Ratio Test/Control (cardiolipin / alcohol optical density) [2]: 2.23 | Optical density reading in ELISA, cardiolipin-coated plate ([2]; mean and standard deviation for three observations): 0.254 ± 0.012 | Difference (pg/ml) medium alone vs medium plus NDX-90 ([3]; 4 hours): 203.0 pg/mL | Glucagon level (pg/ml) Medium plus NDX-90 ([3]; 4 hours): 419.3 ± 2.5 pg/mL | Percentage reduction of glucagon secretion ([3]; 4 hours): 32% and 32.4% | Difference (pg/ml) medium alone vs medium plus NDX-90 ([3]; 24 hours): 102.9 pg/mL | Glucagon level (pg/ml) Medium plus NDX-90 ([3]; 24 hours): 149.6 ± 6.7 pg/mL | Percentage reduction of glucagon secretion ([3]; 24 hours): 40.9% | Glucagon level (pg/ml) Medium plus NDX-90 ([3]; 48 hours): 63.4 ± 1.3 pg/mL | Percentage reduction of glucagon secretion ([3]; 48 hours): 0% | Transmissibility across / uptake by buccal tissue [4]: efficient uptake | Transmissibility % ([4]; Table 5 screening, 30 minutes): 94.1% | Peak Area by HPLC of Peptides in solution Pre-overlay ([4]; Table 5 screening, stock before incubation): 4142 | Peak Area by HPLC of Peptides in solution Post-overlay ([4]; Table 5 screening, supernatant after 30 minutes at 37° C.): 243 | Peak Area by HPLC R1 ([4]; Table 6, replicate culture 1): 276 | Transmissibility T % (R1) ([4]; Table 6, replicate culture 1): 93.3% | Peak Area by HPLC R3 ([4]; Table 6, replicate culture 3): 0 | Transmissibility T % (R3) ([4]; Table 6, replicate culture 3): 100% | Peak Area by HPLC Pre-overlay ([4]; Table 6 triplicate cultures, stock): 4142
